Series [1] in a line: Acute toxicity, oral administration. The conditions noted are these: mouse, in vivo; oral administration. As to the method:
(§1) The acute toxicity of troglitazone was examined by a conventional procedure.
(§2) To 3 ddy-mice, a dose of 300 mg/kg of troglitazone was administered orally.
(§3) The acute toxicities of Compounds Nos. 2, 3, 4 and 10 were examined in a similar way by oral administration. The acute toxicity values were all found to be more than 300 mg/kg.

In series [2] the test system is rat. The conditions noted are these: J. Bone & Mineral Research, 10(1), S361 (1995); cited from earlier work.
Series [3] concerns Zucker Diabetic Fatty rats. As to the kind of experiment: Measurement of bone mineral density (femoral bones, ZDF rats). In kind it is in vivo. Particulars: for Bone mineral density (BMD): mean ± standard error. As to the method:
Osteoporosis may be assessed by a measurement of bone mineral density. Bone mineral density can be measured according to the method reported, for example, in Radioisotope, 37, (9), 521-524 (1988) or in Rinsho-Hoshasen, 35, (1), 41-48 (1990).
Three groups of animals were tested:
(§4) 1. Zucker Diabetic Fatty rats ("ZDF rats"): these are experimental animals with spontaneous diabetes mellitus. A test drug was administered to these animals in a conventional F2 powdery feed. This group is referred to as the "test ZDF group".
2. ZDF rats to which the F2 powdery feed is administered without the drug. This group is referred to as the "control ZDF group".
3. Normal experimental rats (i.e. not ZDF rats) to which the F2 powdery feed is administered without the drug. This group is referred to as the "normal group".
(§5) Compound No. 1, or 5-[4-(6-hydroxy-2,5,7,8-tetramethylchroman-2-ylmethoxy)benzyl]thiazolidin- 2,4-dione, also known as "troglitazone", was administered to 6 week old ZDF rats, by mixing it into F2 powdery feed in an amount of 0.2% w/w for a period of 13 weeks. The mean dosage was 165 mg/kg/day. […] At 19 weeks of age, the rats were sacrificed by ether anesthesia followed by blood-letting from the abdominal aorta. The femoral bones were excised to measure their bone mineral density. For the measurement by X ray, Bone Mineral Density Measuring Apparatus (DCS-600R, Aloka, Japan) was employed.
The experiment reported in Example 1 was repeated, using 4 groups of rats:
1. A normal group (as in Example 1).
2. A control ZDF group (as in Example 1).
(§6) 3. A test ZDF group in which troglitazone was present in the feed in an amount of 0.2%, resulting in an average uptake of 132 mg/kg/day (hereinafter the "troglitazone ZDF group").
(§7) 4. A test ZDF group in which pioglitazone was present in the feed in an amount of 0.067%, resulting in an average uptake of 52.6 mg/kg/day (hereinafter the "pioglitazone ZDF group").
The experiment reported in Example 1 was repeated, but only for 4 weeks, using 6 groups of rats:
(§8) 3. A test ZDF group in which troglitazone was present in the feed in an amount of 0.05%, resulting in an average uptake of 43.5 mg/kg/day (hereinafter the "low troglitazone ZDF group").
(§9) 4. A test ZDF group in which troglitazone was present in the feed in an amount of 0.1%, resulting in an average uptake of 89.8 mg/kg/day (hereinafter the "high troglitazone ZDF group").
(§10) 5. A test ZDF group in which pioglitazone was present in the feed in an amount of 0.0125%, resulting in an average uptake of 12.4 mg/kg/day (hereinafter the "low pioglitazone ZDF group").
(§11) 6. A test ZDF group in which pioglitazone was present in the feed in an amount of 0.025%, resulting in an average uptake of 23.1 mg/kg/day (hereinafter the "high pioglitazone ZDF group").

Series [4] concerns Zucker Diabetic Fatty rats. Put plainly: Control of diabetes in ZDF rats. In kind it is in vivo. As to the method: as §4, §5, §6, §7, §8, §9, §10, §11
Series [5] concerns ddy-mice. As to the kind of experiment: Acute toxicity, oral administration. Particulars: in vivo, po, 300 mg/kg. As to the method: as §1, §2, §3
Where [6] appears, read: Example 2, at doses that fully control diabetes, compared with control ZDF rats.
Setting [7] is: Example 3, low and high doses, 4 weeks, as compared with control ZDF group.
Where [8] appears, read: Example 2, troglitazone 132 mg/kg/day, pioglitazone 52.6 mg/kg/day.
Setting [9] is: Example 3, troglitazone 43.5 and 89.8 mg/kg/day, pioglitazone 12.4 and 23.1 mg/kg/day.

Entries after “also recorded” stand apart in the source; their conditions may differ. Some results are limits rather than exact numbers.

With `CC1(COc2ccc(CC3SC(=O)NC3=O)cc2)CCc2cc(O)ccc2O1` (centres unmarked) [compound 3], the 50% lethal dose (LD50) at 120 h in series [1] was > 300 mg/kg.
Same read-out and setting: the figure for `Cc1c(C)c2c(c(C)c1O)CCC(COc1ccc(CC3SC(=O)NC3=O)cc1)O2` (centres unmarked) [compound 2] is > 300 mg/kg; for `CC1(COc2ccc(CC3SC(=O)NC3=O)cc2)CCc2cc(O)c(C(C)(C)C)cc2O1` (centres unmarked) [compound 4, 5-[4-(6-Hydroxy-2-methyl-7-t-butylchroman-2-ylmethoxy)benzyl]thiazolidin-2,4-dione] it is > 300 mg/kg.
On the same count and under the same terms, the figure for `CCOC(=O)Oc1c(C)c(C)c2c(c1C)CCC(C)(COc1ccc(CC3SC(=O)NC3=O)cc1)O2` (centres unmarked) [compound 10] is > 300 mg/kg.
For `CCc1ccc(CCOc2ccc(CC3SC(=O)NC3=O)cc2)nc1` (centres unmarked) [pioglitazone, reference compound], the “bone loss as assessed by bone mineral density” value in series [2] is recorded as “lead to bone loss, as assessed by a decrease in bone mineral density”. Also, the “effect on bone mineral density (in words)” value was “reduced BMD to below the level found in untreated ZDF rats” in series [3] (setting [6]) and “not effective” in series [3] (setting [7]). For the same compound, the “Bone mineral density (BMD)” value is given as 149.3 ± 1.8 mg/cm^2 in series [3] (Example 2, pioglitazone ZDF group, 0.067% in feed, 52.6 mg/kg/day, n=6, * p < 0.05 vs control ZDF (157.0 ± 2.2)); 151.2 ± 0.7 mg/cm^2 in series [3] (Example 3, 4 weeks, high pioglitazone ZDF group, 0.025% in feed, 23.1 mg/kg/day, n=5, control ZDF 149.8 ± 1.0); 151.2 ± 0.9 mg/cm^2 in series [3] (Example 3, 4 weeks, low pioglitazone ZDF group, 0.0125% in feed, 12.4 mg/kg/day, n=5, control ZDF 149.8 ± 1.0). In addition, the control of diabetes result in series [4] (setting [8]) is listed as “fully controlled diabetes”; in series [4] (setting [9]), “do not control diabetes or control it only partially; also recorded: incompletely effective against diabetes”. In addition, the “anti-diabetic activity relative to troglitazone” value in series [4] (statement in Example 2) is recorded as “more active than troglitazone”.
With `Cc1c(C)c2c(c(C)c1O)CCC(C)(COc1ccc(CC3SC(=O)NC3=O)cc1)O2` (centres unmarked) [Compound No. 1, 5-[4-(6-Hydroxy-2,5,7,8-tetramethylchroman-2-ylmethoxy)benzyl]thiazolidin-2,4-dione], the “survival after 5 days” value in series [5] is reported as “all mice were alive”. In addition, the “Bone mineral density (BMD)” value is reported as 172.8 ± 7.2 mg/cm^2 in series [3] (Example 1, test ZDF group, 0.2% w/w in feed, mean 165 mg/kg/day, 13 weeks, n=7, * p < 0.05 vs control ZDF (164.6 ± 3.9), normal 187.3 ± 2.3); 169.4 ± 1.1 mg/cm^2 in series [3] (Example 2, troglitazone ZDF group, 0.2% in feed, 132 mg/kg/day, n=6, *** p < 0.001 vs control ZDF (157.0 ± 2.2), normal 187.4 ± 1.5); 159.8 ± 1.2 mg/cm^2 in series [3] (Example 3, 4 weeks, high troglitazone ZDF group, 0.1% in feed, 89.8 mg/kg/day, n=5, *** p < 0.001 vs control ZDF (149.8 ± 1.0)); 156.6 ± 1.5 mg/cm^2 in series [3] (Example 3, 4 weeks, low troglitazone ZDF group, 0.05% in feed, 43.5 mg/kg/day, n=5, *** p < 0.001 vs control ZDF (149.8 ± 1.0), normal 153.4 ± 0.9). The “effect on bone mineral density (in words)” value in series [3] (setting [6]) is “increased BMD from the depressed level in the control ZDF rats almost to the level found in normal rats”; in series [3] (setting [7]), “improves BMD as compared with the control ZDF group”. For the same compound, the control of diabetes result in series [4] (Example 1, mean dosage 165 mg/kg/day in feed) was “diabetes is fully controlled”; in series [4] (setting [8]), “fully controlled diabetes”; in series [4] (setting [9]), “do not control diabetes or control it only partially; also recorded: incompletely effective against diabetes”.

The record behind these values is US5804590A, “Treatment and prophylaxis of osteoporosis” (Sankyo Company, Limited, priority 1995, dated 1998).
